In series [1] the test system is CT26 colon tumor-bearing mice.
Description: (§2) Antitumor efficacy was assessed by measuring tumor volumes that are calculated as the largest diameter × the smallest diameter^2 × 0.53. To analyze the increase of tumor-infiltrating lymphocytes by antitumor immune response, tumor tissues were collected from mice on day 13 after treatment, and single cells were isolated from tumor tissues using a tumor dissociation kit. Following single cell counting, the cells were incubated with FcBlock for 10 min to avoid non-specific antibody binding. Then, multi-parameter staining was performed at 4 °C for 50 min to identify the following populations within the tumor tissues: (i) CRT-positive cancer cells (CD45^−CRT^+), (ii) mature DCs (CD11c^+CD40^+CD86^+), (iii) cytotoxic T cells (CD45^+CD3^+CD8^+) and (iv) regulatory T lymphocytes (Tregs; CD45^+CD3^+CD4^+CD25^+).
Series [2] concerns CT26 cells co-cultured with bone marrow-derived macrophages (BMDMs). Description: Co-culture assay: phagocytosis of treated CT26 cells by BMDMs. To be noted: CT26 treated 2 µM (DOX contents) 48 h, pHrodo labeled; co-cultured 2 h with BMDMs; confocal imaging.
Description: For these analyses, bone marrow cells were collected from 5-week-old male BALB/C mice and cultured with differentiation media containing M-CSF (20 ng/mL) for 7 days, followed by labeling with CellTracker Green. […] Then, both cells were co-cultured at 37 C for 2 h, and the phagocytosis of cancer cells was observed using a CLSM.
A further series relates to IAPs in CT26 cells. Description: Intracellular IAPs expression by western blot. The format is cell-based, mouse. The settings on record: 48 h. A general note: Immunoblotting shows a protein as a band on a membrane.
Series [3] relates to CT26 colon tumor-bearing mice. Nature of the series: In vivo antitumor efficacy.
Description: as §2
The nature of series [4]: Drug release profile from dialysis membranes. The class given is physicochemical. The settings on record: very fast release.
Series [5] concerns cancer, normal and immune cells (CT26, 4T1, H9C2, HDF, M0 and M1 macrophages, DCs, T cells). Nature of the series: Cytotoxicity study (CCK-8), all cell types. To be noted: read-out: IC50 values in all the cell types (span); CCK-8, 48 h, concentrations based on DOX contents.
Description: Briefly, 5 × 10^3 cells were seeded in 96-well cell culture plates and cultured at 37 C for 24 h. […] Finally, 20 μl Cell Counting Kit-8 (CCK-8) solution was added and then further incubated for 20 min. The cell viability was measured using a UV/Vis microplate reader.
For the next series, the system named is CT26 tumor tissues. Description: Antitumor immune response in tumor tissues (flow cytometry). The format is in vivo, mice. To be noted: day 13 after treatment, 3 mg/kg DOX dose once every three days.
Another series has as its system CT26 cells. Description: Cellular uptake and nuclear localization of DOX fluorescence (confocal). The settings on record: both naive or Z-FA-FMK-treated CT26 cells; 2 µM, 48 h.
The subject of another series is IAPs. To be noted: cited from earlier work. The source says: (§1) First, the cathepsin B-cleavable SMAC-P, SMAC-P-FRRG ([…]), was conjugated to a DOX through one-step EDC/NHS reaction, resulting in SMAC-P-FRRG-DOX (Fig. 1a and Additional file 1: Figure S1).
The next series concerns cathepsin E. The settings on record: cited from earlier work.
Description: as §1

A further series deals with caspase-3. To be noted: cited from earlier work.
Description: as §1

In a further series the test system is cathepsin D. To be noted: cited from earlier work.
Description: as §1

In another series the test system is MMP-9. The settings on record: cited from earlier work.
Description: as §1

The test system of a further series is cathepsin L. To be noted: cited from earlier work.
Description: as §1

The nature of series [6]: Particle stability (particle size over time) in saline, mouse plasma or serum. The class given is physicochemical. On the procedure:
The inset pictures indicate representative images of Aposomes in mouse serum conditions. g Release profiles of free DOX, DOXIL and Aposomes. […] As a control, SMAC-P-FRRG-DOX in MES buffer in the absence of cathepsin B was analyzed using an HPLC system.

Series [7] in a line: Size distribution and zeta potential by zeta-sizer (DLS). To be noted: Zetasizer, 1 mg/ml; saline or D.W (Figure S3). The format is physicochemical.

Ends that are not written are not given here.

Consider 4 compounds from article PMC10938764 (Journal of Nanobiotechnology, 2024).

Description for CT26 tumor tissues: as §2

On to `COc1cccc2c1C(=O)c1c(O)c3c(c(O)c1C2=O)C[C@@](O)(C(=O)CO)C[C@@H]3O[C@H]1C[C@H](N)[C@H](O)[C@H](C)O1.Cl` [free DOX, Doxorubicin hydrochloride], for which, in series [1] (3 mg/kg DOX dose i.v. once every three days), the “mice died within 13 days” value is recorded as 4 out of 5. Further, the “body weight loss and tissue damage in major organs” value in series [1] (3 mg/kg DOX dose once every three days, H and E of major organs) is listed as “significant body weight loss along with extensive tissue damages”. Besides, in series [2], the “phagocytosis of CT26 cells by BMDMs” value amounted to 2.1 ± 0.21%. Also, the “intracellular IAPs expression levels” value in the series with IAPs in CT26 cells was “significantly upregulated”. The “median survival / survival of mice” value in series [3] (3 mg/kg DOX dose once every three days) is given as 14 days. In addition, the “tumor volume on day 14” value in series [3] (i.v. 3 mg/kg DOX dose once every three days, n = 5, mean ± SD) was 556.2 ± 149.82 mm^3. Moreover, the “time of release from dialysis membranes” value in series [4] is recorded as ≤ 6 h. In addition, the IC50 in series [5] lay within 3 to 380 nM. For the same compound, the “percentage of CRT-positive tumor cells (CD45−CRT+) within the tumor tissues” value in the series with CT26 tumor tissues worked out at 57.67 ± 0.91%. Besides, the “free DOX fluorescence detected in the nuclei” value with CT26 cells is given as “more than 90%”.
With AVPIAQ, in the series on IAPs, the “IAP antagonism compared to AVPIAQK, AVPIA and AVPI” value was “potent activity for IAP antagonism compared to other sequences”.
Take “AVPIAQFR [peptide released from SMAC-P-FRRG-DOX by cathepsin B]”: the “IAPs antagonism activity of cathepsin B cleavage product” value in the series with IAPs was “comparable IAPs antagonism activity to AVPIAQ”.
On to “AVPIAQFRRG [SMAC-P-FRRG-DOX, prodrug of SMAC mimetic peptide (AVPIAQ), cathepsin B-cleavable peptide (FRRG) and doxorubicin]”, for which the “cleavage by cathepsin E” value with cathepsin E is given as “not cleaved”. For the same compound, the “cleavage by caspase-3” value in the series on caspase-3 is reported as “not cleaved”. Besides, in the series with cathepsin D, the “cleavage by cathepsin D” value is listed as “not cleaved”. Also, the “cleavage by MMP-9” value in the series on MMP-9 is “not cleaved”. For the same compound, the “cleavage by cathepsin L” value with cathepsin L is given as “not cleaved”. The “particle stability in mouse plasma” value in series [6] (mouse plasma, 1 mg/ml, up to 5 days, particle size) was “remarkable aggregation after 2 days”. For the same compound, the “particle stability in mouse serum” value in series [6] (mouse serum, as worded in Conclusions) is on record as “significant aggregation from 48 h”. Also, in [7], the zeta potential was found to be 14.9 ± 0.814 mV.

By IC50 is commonly meant the concentration at which inhibition is half-maximal.
